Key:
[1] = system: crop plants transformed with the herbicide-resistant PPO gene; experiment: Weed control test, crop phytotoxicity in greenhouse; assay type: in vivo; details: 100 g/ha; either method (soil surface after sowing, 27 days; sprayed onto plants at 18 days, 20 days)
Description: (§1) Flats with an area of 33×23 cm^2 and a depth of 11 cm are filled with upland field soil. Seeds of crop plants with herbicide-resistant PPO genes developed according to methods similar to those described in Example 16 are planted along with those of weeds such as Echinochloa crus-galli, Abutilon theophrasti and Ipomoea hederacea, and covered with 1-2 cm soil. Compounds of formulae 20 and 22 (wherein R is an ethyl group) of an amount of equivalent to 100 g/ha are dissolved in 20 volumes of a mixture of surfactant and liquid carrier, such as a mixture of calcium dodecylbenzenesulfonate/polyoxyethylene styrylphenyl ether/xylene/cyclohexanone=1:2:4:8 (v/v), and diluted with water of a volume equivalent to 10 L/ha, then sprayed on surface of the soil immediately after sowing. Test plants are grown in a greenhouse for 27 days after treatment to observe weed control activity and crop phytotoxicity of the test compounds.
Seeds of the aforementioned crop plants with herbicide-resistant PPO genes are planted along with those of weeds such as Echinochloa crus-galli, Abutilon theophrasti and Ipomoea hederacea, covered with soil of 1-2 cm deep, and the plants grown for 18 days in the greenhouse. […]

Echinochloa crus-galli = experiment: Weed control test in greenhouse; assay type: in vivo; details: 100 g/ha; either method (soil surface after sowing, 27 days; sprayed onto plants at 18 days, 20 days)
Description: as §1
(§2) Seeds of the aforementioned crop plants with herbicide-resistant PPO genes are planted along with those of weeds such as Echinochloa crus-galli, Abutilon theophrasti and Ipomoea hederacea, covered with soil of 1-2 cm deep, and the plants grown for 18 days in the greenhouse. Compounds of formulae 20 and 22 (wherein R is an ethyl group) of an amount of equivalent to 100 g/ha are dissolved in 20 volumes of a mixture of surfactant and liquid carrier, such as the mixture of calcium dodecylbenzenesulfonate/polyoxyethylene styrylphenyl ether/xylene/cyclohexanone=1:2:4:8 (v/v), and diluted with water of a volume equivalent to 10 L/ha, then sprayed onto plants from the above. Test plants are grown in a greenhouse for 20 days after treatment for observation of weed control activity and crop phytotoxicity by test compounds.

Abutilon theophrasti = experiment: Weed control test in greenhouse; assay type: in vivo; details: 100 g/ha; either method (soil surface after sowing, 27 days; sprayed onto plants at 18 days, 20 days)
Description: as §1, §2

Ipomoea hederacea = experiment: Weed control test in greenhouse; assay type: in vivo; details: 100 g/ha; either method (soil surface after sowing, 27 days; sprayed onto plants at 18 days, 20 days)
Description: as §1, §2

[2] = system: E. coli strains with the cDNA encoding a herbicide-sensitive PPO (sensitive transformants); experiment: Colony formation of herbicide-sensitive E. coli SASX38 transformants on LB+ampicillin agar with compound; assay type: cell-based; details: particular concentration of Compound A, two days, compared to medium lacking Compound A
Description: (§3) The plasmid vector containing the cDNA encoding a herbicide-sensitive PPO enzyme obtained in Example 2 or 9 is introduced into the mutant SASX38 strain of E. coli in which the endogenous the PPO gene (hemG locus) is deleted and herbicide-sensitive transformants are selected by the method in Example 2. Similarly, a cDNA encoding a herbicide-resistant PPO is obtained according to the method in Example 12, with a base pair alteration at the position of Val13 in SEQ. ID. NO.: 1, SEQ. ID. NO.: 2 and SEQ. ID. NO.: 3 resulting in the substitution of methionine for valine. Said cDNA is re-cloned in the plasmid vector pUC118 (Nishimura et al., J. Biol. Chem. 270: 8076 (1995)), and said plasmid vector is introduced into E. coli SASX38 to obtain herbicide-resistant transformants. Both sensitive and resistant transformants are separately plated on LB+ ampicillin agar medium supplemented with compound A at a given concentration, and incubated for two days. Colony formation is then evaluated to assess the growth of the sensitive and resistant transformants in the presence of the herbicide. […]

[3] = system: E. coli strains with a cDNA encoding a herbicide-resistant PPO (resistant transformants); experiment: Colony formation of herbicide-resistant E. coli SASX38 transformants on LB+ampicillin agar with compound; assay type: cell-based; details: same concentration of Compound A, compared to medium free of Compound A
Description: as §3

[4] = system: Chlamydomonas reinhardtii GB-2951; experiment: Herbicide resistance test of GB-2951 grown in TAP liquid media with various concentrations of the compounds; assay type: cell-based; details: compared with wild type strain CC-125
Description: Resistance of GB-2951 to several herbicides was tested by growing the strain in TAP liquid media containing various concentration of the compounds, according to the method described by Shibata et al. (Research in Photosynthesis, Vol III, pp. 567-570, Murata ed., c. 1992 by Kluwer Academic Publisher, Dordrecht, Netherlands). […] Moreover, GB-2951 was crossed to wild type strain CC-124 and several sets of tetrads were isolated according to the method as described by Harris (Harris, E. H., The Chlamydomonas Sourcebook, c. 1989 by Academic Press, San Diego, Calif.). All tetrads segregated two herbicide (compound A) sensitive and two herbicide-resistant progeny. In addition, tetrads from a cross of GB-2951 to RS-322, a porphyria herbicide-resistant isolate from a cross of RS-3 and CC-124, yielded no herbicide-sensitive progeny.

`CC(C)OC(=O)c1cc(-n2c(=O)cc(C(F)(F)F)n(C)c2=O)ccc1Cl` [formula 20] was tested, and the crop phytotoxicity [1] was “no significant phytotoxicity”, the “weed control activity (growth)” value (Echinochloa crus-galli) was “inhibited” and the “weed control activity (growth)” value (Abutilon theophrasti) was “inhibited”. The “weed control activity (growth)” value (Ipomoea hederacea) was “inhibited”.
In the case of `C#CCOc1cc(N2C(=O)C3=C(CCCC3)C2=O)c(F)cc1Cl` [compound A, [N-(4-chloro-2-fluoro-5-propargyloxy)phenyl-]3,4,5,6-tetrahydrophthalimide], the “growth of sensitive transformants” value [2] is reported as “strongly suppressed”, the “growth of resistant transformants” value [3] is reported as “same level of growth” and the “resistance or sensitivity of GB-2951 to the herbicide” value (shortened to “resistance or sensitivity”) [4] is reported as “showed resistance”.
For `C[n+]1ccc(-c2cc[n+](C)cc2)cc1` [paraquat], the “resistance or sensitivity” value [4] was “as sensitive”.
With `COC(=O)c1cc(Oc2ccc(C(F)(F)F)cc2Cl)ccc1[N+](=O)[O-]` [acifluorfen-methyl] the “resistance or sensitivity” value [4] was “showed resistance”.
For `CN(C)C(=O)Nc1ccc(Cl)c(Cl)c1` [diuron], the “resistance or sensitivity” value [4] was “as sensitive”.

From US7586023B1, “Methods of conferring ppo-inhibiting herbicide resistance to plants by gene manipulation” (Sumitomo Chemical Company, Limited, priority 1996, dated 2009)
